Experimental findings from patent US20260250290A1 (BRISTOL-MYERS SQUIBB COMPANY, priority 2023, published 2026) are described below.

Broadly, the pIC50 is the negative decadic logarithm of the IC50, by convention in mol/L.

pIC50: −log10 of the molar value. Structures can show the parent of a compound that is named as a salt.

The target in this assay is T1, full length SGK1 (Homo sapiens, UniProt O00141).
T1 construct: 125 μM full length SGK1 (Life Technologies Part #PR7358A); purchased Life Technologies PR7358A
T1 sequence (O00141 1-431): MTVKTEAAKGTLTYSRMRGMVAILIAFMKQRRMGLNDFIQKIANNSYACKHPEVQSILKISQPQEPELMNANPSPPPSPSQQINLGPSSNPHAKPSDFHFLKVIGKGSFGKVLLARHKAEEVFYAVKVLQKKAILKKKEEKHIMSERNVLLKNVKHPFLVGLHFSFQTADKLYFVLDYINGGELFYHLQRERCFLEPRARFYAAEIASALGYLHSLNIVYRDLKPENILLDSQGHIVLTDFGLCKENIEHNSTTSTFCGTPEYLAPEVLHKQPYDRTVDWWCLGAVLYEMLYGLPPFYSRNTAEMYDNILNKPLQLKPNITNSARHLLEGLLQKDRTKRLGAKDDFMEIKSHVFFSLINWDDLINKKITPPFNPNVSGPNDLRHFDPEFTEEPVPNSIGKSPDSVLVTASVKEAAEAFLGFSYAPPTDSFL
The experiment in a line: SGK1 inhibition Assay A (Caliper LabChip electrophoretic separation of fluorescent peptide substrate and phosphorylated product). It is filed as biochemical. To be noted: Assay A; 20 μM ATP, 40 min incubation; read-out: SGK1 IC50.
Consider `COC(=O)N1CC=C(c2cc(N3CCC[C@@H](NC(=O)c4sc(Cl)cc4OC4CCN(CCO)CC4)C3)c3c(N)ncnn23)C1` [Example 564, methyl (R)-3-(4-amino-5-(3-(5-chloro-3-((1-(2-hydroxyethyl)piperidin-4-yl)oxy)thiophene-2-carboxamido)piperidin-1-yl)pyrrolo[2,1-f][1,2,4]triazin-7-yl)-2,5-dihydro-1H-pyrrole-1-carboxylate], for which the pIC50 was 8.70.
Take `CC(C)N1CC2(CC(Oc3cc(Cl)sc3C(=O)N[C@@H]3CCCN(c4cc(-c5ccc(C#N)c(F)c5)n5ncnc(N)c45)C3)C2)C1` [Example 631, (R)—N-(1-(4-amino-7-(4-cyano-3-fluorophenyl)pyrrolo[2,1-f][1,2,4]triazin-5-yl)piperidin-3-yl)-5-chloro-3-((2-isopropyl-2-azaspiro[3.3]heptan-6-yl)oxy)thiophene-2-carboxamide]: the negative logarithm of the IC50 (pIC50) was 8.52.
In the case of `COc1cncc(C(=O)N[C@@H]2CCCN(c3cc(-c4ccc(S(C)(=O)=O)cc4)n4ncnc(N)c34)C2)c1` [Example 102, (R)-N-(1-(4-amino-7-(4-(methylsulfonyl)phenyl)pyrrolo[2,1-f][1,2,4]triazin-5-yl)piperidin-3-yl)-5-methoxynicotinamide, TFA], the pIC50 was 7.35.
The value for `N#Cc1ccc(-c2cc(N3CCC[C@@H](NC(=O)c4ccc(C(F)F)s4)C3)c3c(N)ncnn23)cn1` [Example 487, (R)-N-(1-(4-amino-7-(6-cyanopyridin-3-yl)pyrrolo[2,1-f][1,2,4]triazin-5-yl)piperidin-3-yl)-5-(difluoromethyl)thiophenc-2-carboxamide] was 8.52; that for `CNC(=O)c1ccc(-c2cc(N3CCC[C@@H](NC(=O)c4ccc(Cl)s4)C3)c3c(N)ncnn23)cn1` [Example 242, (R)-5-(4-amino-5-(3-(5-chlorothiophene-2-carboxamido)piperidin-1-yl)pyrrolo[2,1-f][1,2,4]triazin-7-yl)-N-methylpicolinamide] was 8.30.
Regarding `COc1cnccc1C(=O)N[C@@H]1CCCN(c2cc(-c3ccc(S(C)(=O)=O)cc3)n3ncnc(N)c23)C1` [Example 68, (R)-N-(1-(4-amino-7-(4-(methylsulfonyl)phenyl)pyrrolo[2,1-f][1,2,4]triazin-5-yl)piperidin-3-yl)-3-methoxyisonicotinamide], the pIC50 was 6.54.
For the compound `Cc1ccccc1C(=O)N[C@@H]1CCCN(c2cc(-c3ccc(S(C)(=O)=O)cc3)n3ncnc(N)c23)C1` [Example 52, (R)-N-(1-(4-amino-7-(4-(methylsulfonyl)phenyl)pyrrolo[2,1-f][1,2,4]triazin-5-yl)piperidin-3-yl)-2-methylbenzamide], the pIC50 is 6.68.
As to `N#Cc1ccc(-c2cc(N3CCC[C@@H](NC(=O)c4ccc(Cl)s4)C3)c3c(N)ncnn23)cn1` [Example 241], the pIC50 was 9.52.
For `Nc1ncnn2c(C3=CCN(C(=O)c4ncco4)C3)cc(N3CCC[C@@H](NC(=O)c4ccc(Cl)s4)C3)c12` [Example 887, (R)-N-(1-(4-amino-7-(1-(oxazole-2-carbonyl)-2,5-dihydro-1H-pyrrol-3-y1)pyrrolo[2,1-f][1,2,4]triazin-5-y1)piperidin-3-y1)-5-chlorothiophene-2-carboxamide], the pIC50 is 8.10.
Regarding `CC(=O)N1CC=C(c2cc(N3CCC[C@@H](NC(=O)c4ccc(S(C)(=O)=O)cc4)C3)c3c(N)ncnn23)C1` [Example 468, (R)-N-(1-(7-(1-acetyl-2,5-dihydro-1H-pyrrol-3-yl)-4-aminopyrrolo[2,1-f][1,2,4]triazin-5-yl)piperidin-3-yl)-4-(methylsulfonyl)benzamide], the pIC50 is 7.59.
As to `N#Cc1ccc(-c2cc(N3CCC[C@@H](NC(=O)c4sc(C(F)F)cc4C4CCNC4)C3)c3c(N)ncnn23)cn1` (stereo partly drawn) [Example 400, N-((R)-1-(4-amino-7-(6-cyanopyridin-3-yl)pyrrolo[2,1-f][1,2,4]triazin-5-yl)piperidin-3-yl)-5-(difluoromethyl)-3-(pyrrolidin-3-yl)thiophene-2-carboxamide], the pIC50 is 6.52.
With `CC(=O)N1CC=C(c2cc(N3CCC[C@@H](NC(=O)c4ccc(N(C)C)cc4)C3)c3c(N)ncnn23)C1` [Example 445] the figure was 8.30; with `CC(=O)NCC(=O)N1CC=C(c2cc(N3CCC[C@@H](NC(=O)c4ccc(Cl)s4)C3)c3c(N)ncnn23)C1` [Example 914, (R)—N-(1-(7-(1-(acetylglycyl)-2,5-dihydro-1H-pyrrol-3-yl)-4-aminopyrrolo[2,1-f][1,2,4]triazin-5-yl)piperidin-3-yl)-5-chlorothiophene-2-carboxamide], 8.52; with `Nc1ncnn2c(-c3cncnc3)cc(N3CCC[C@@H](NC(=O)c4sc(Cl)cc4OC4CCN(C5COC5)CC4)C3)c12` [Example 584], 7.59.
As to `Nc1ncnn2c(-c3ccnc(C(F)(F)F)c3)cc(N3CCC[C@@H](NC(=O)c4ccc(Cl)s4)C3)c12` [Example 220, (R)-N-(1-(4-amino-7-(2-(trifluoromethyl)pyridin-4-yl)pyrrolo[2,1-f][1,2,4]triazin-5-yl)piperidin-3-yl)-5-chlorothiophene-2-carboxamide], the negative-log IC50 (pIC50) is 8.15.
The value for `CC(=O)N1CC=C(c2cc(N3CCC[C@@H](NC(=O)c4sc(Cl)cc4OC4CN(C(C)C)C4)C3)c3c(N)ncnn23)C1` [Example 577, (R)-N-(1-(7-(1-acetyl-2,5-dihydro-1H-pyrrol-3-yl)-4-aminopyrrolo[2,1-f][1,2,4]triazin-5-yl)piperidin-3-yl)-5-chloro-3-((1-isopropylazetidin-3-yl)oxy)thiophene-2-carboxamide] was 8.22; that for `COC(=O)N1CC=C(c2cc(N3CCC[C@@H](NC(=O)c4sc(Cl)cc4OCCN4CCS(=O)(=O)CC4)C3)c3c(N)ncnn23)C1` [Example 291, Methyl (R)-3-(4-amino-5-(3-(5-chloro-3-(2-(1,1-dioxidothiomorpholino)ethoxy)thiophene-2-carboxamido)piperidin-1-yl)pyrrolo[2,1-f] [1,2,4]triazin-7-yl)-2,5-dihydro-1H-pyrrole-1-carboxylate] was 8.10; that for `Cc1cnc(C(=O)N[C@@H]2CCCN(c3cc(-c4ccc(S(C)(=O)=O)cc4)n4ncnc(N)c34)C2)s1` [Example 101, (R)-N-(1-(4-amino-7-(4-(methylsulfonyl)phenyl)pyrrolo[2,1-f][1,2,4]triazin-5-yl)piperidin-3-yl)-5-methylthiazole-2-carboxamide] was 7.68.
Consider `CC(=O)N1CC=C(c2cc(N3CCCC(NC(=O)c4sc(Cl)cc4OC4CC5CC4CN5C(C)C)C3)c3c(N)ncnn23)C1` (single isomer, unassigned) [Example 610], for which the negative-log IC50 (pIC50) is 7.96.
Consider `COc1ccc(OC(=O)N[C@@H]2CCCN(c3cc(C4=CCN(C(C)=O)C4)n4ncnc(N)c34)C2)cc1` [Example 812, 4-methoxyphenyl (R)-(1-(7-(1-acetyl-2,5-dihydro-1H-pyrrol-3-yl)-4-aminopyrrolo[2,1-f][1,2,4]triazin-5-yl)piperidin-3-yl)carbamate TFA salt], for which the pIC50 is 6.01.
With `CC(C)(O)CCOc1cc(Cl)sc1C(=O)N[C@@H]1CCCN(c2cc(-c3ccnc(F)c3)n3ncnc(N)c23)C1` [Example 166, (R)—N-(1-(4-amino-7-(2-fluoropyridin-4-yl)pyrrolo[2,1-f][1,2,4]triazin-5-yl)piperidin-3-yl)-5-chloro-3-(3-hydroxy-3-methylbutoxy)thiophene-2-carboxamide], the negative logarithm of the IC50 (pIC50) is 8.52.
For the compound `COc1cc(C)sc1C(=O)N[C@@H]1CCCN(c2cc(-c3ccc(S(C)(=O)=O)cc3)n3ncnc(N)c23)C1` [Example 100, (R)-N-(1-(4-amino-7-(4-(methylsulfonyl)phenyl)pyrrolo[2,1-f][1,2,4]triazin-5-yl)piperidin-3-yl)-3-methoxy-5-methylthiophene-2-carboxamide], the pIC50 was 8.10.
In the case of `Cc1nc(OCCN(C)C)c(C(=O)N[C@@H]2CCCN(c3cc(-c4ccnc(C#N)c4)n4ncnc(N)c34)C2)s1` [Example 356, (R)-N-(1-(4-amino-7-(2-cyanopyridin-4-yl)pyrrolo[2,1-f][1,2,4]triazin-5-yl)piperidin-3-yl)-4-(2-(dimethylamino)ethoxy)-2-methylthiazole-5-carboxamide], the negative logarithm of the IC50 (pIC50) was 7.89.
With `COc1cc(C(=O)N(C)[C@@H]2CCCN(c3cc(-c4ccc(S(C)(=O)=O)cc4)n4ncnc(N)c34)C2)ccn1` [Example 121, (R)—N-(1-(4-amino-7-(4-(methylsulfonyl)phenyl)pyrrolo[2,1-f][1,2,4]triazin-5-yl)piperidin-3-yl)-2-methoxy-N-methylisonicotinamide] the figure was 6.42; with `COc1ncccc1C(=O)N[C@@H]1CCCN(c2cc(-c3ccc(S(C)(=O)=O)cc3)n3ncnc(N)c23)C1` [Example 60, (R)-N-(1-(4-amino-7-(4-(methylsulfonyl)phenyl)pyrrolo[2,1-f][1,2,4]triazin-5-yl)piperidin-3-yl)-2-methoxynicotinamide], 6.89; with `CC(=O)N1CC=C(c2cc(N3CCC[C@@H](NC(=O)c4sc(C5CC5)cc4OC4CCNCC4)C3)c3c(N)ncnn23)C1` [Example 376E, (R)—N-(1-(7-(1-acetyl-2,5-dihydro-1H-pyrrol-3-yl)-4-aminopyrrolo[2,1-f][1,2,4]triazin-5-yl)piperidin-3-yl)-5-cyclopropyl-3-(piperidin-4-yloxy)thiophene-2-carboxamide], 8.52.
